# Source: US20260345527A1 (priority 2022, published 2026)
# Like-named read-outs stand apart in the source and are kept apart here.
# Columns and labels:
# ALS = conditions: approved ALS therapeutics, background; cited from earlier work
# [1] = tested on: HSPB8 (Heat Shock Protein Family B (Small) Member 8); conditions: sh-sy5y cells, 24 h
# HSPB8 = assay: protein expression of chaperone HSPB8 in SH-SY5Y cells
# TDP-43 [2] = assay: TDP-43 aggregation (TDP-43 aggregation kit) in H2O2-treated SH-SY5Y cells
# TDP-43 protein = assay: inhibition of TDP-43 protein aggregation in SH-SY5Y cells (summary statements)
# TDP-25 = assay: intracellular localization of TDP-25 in SH-SY5Y cells transfected with GFP-TDP-25 (fluorescence microscopy)
# From the text: (§1) In FIG. 4, blue fluorescence indicates the nucleus with DAPI, and green fluorescence indicates TDP-25 with GFP.
# (§2) To construct an aggregation model of TDP-43 protein in the SH-SY5Y cells, which are human neuroblastoma cell lines, a GFP-TDP-25 plasmid was transfected into cells, and it may be confirmed that the transfected GFP-TPD-25 (GFP: green fluorescent protein) is present in the cytoplasm.
# TDP-43 [3] = assay: TDP-43 aggregation in cytoplasm by immunofluorescence staining and fluorescence microscopy in H2O2-treated SH-SY5Y cells
# insoluble TDP-43 = assay: expression of insoluble TDP-43 in GFP-TDP-25 TDP-43 aggregation model of SH-SY5Y cells; conditions: GFP-TDP-25 transfected cells; metformin (5 mM), colchicine (1000 nM) alone or in combination; FIG. 4 B and C
# From the text: as §1, §2
smiles,measurement,setting,value
CC1=NN(c2ccccc2)C(=O)C1 [Edaravone],effect on life expectancy or disease progression in ALS patients,ALS,help extend life expectancy in patients by several months or delay the progression of the disease at an early stage
same,therapeutic effect in ALS,ALS,only a symptom-relieving effect
Nc1nc2ccc(OC(F)(F)F)cc2s1 [Riluzole],effect on life expectancy or disease progression in ALS patients,ALS,help extend life expectancy in patients by several months or delay the progression of the disease at an early stage
same,therapeutic effect in ALS,ALS,only a symptom-relieving effect
COc1cc2c(c(OC)c1OC)-c1ccc(OC)c(=O)cc1[C@@H](NC(C)=O)CC2 [colchicine],increase in HSPB8 mRNA expression,[1],approximately 2 fold
same,increase of TFEB mRNA expression,"TFEB; sh-sy5y cells, 24 h",2-3 times
same,increase of SQSTM1/p62 mRNA expression,"SQSTM1/p62; sh-sy5y cells, 24 h",2-3 times
same,increase of MAP1LC3A mRNA expression,"MAP1LC3A; sh-sy5y cells, 24 h",2-3 times
same,change in HSPB8 protein expression,HSPB8,inadequate change
same,effect on hydrogen peroxide-induced TDP-43 aggregation,TDP-43 [2],slight effect
same,reduction/inhibition of TDP-43 aggregation (summary),TDP-43 protein,hardly reduced
same,effect on TDP-25 accumulation in the cytoplasm,TDP-25,did not affect
same,effect on TDP-43 aggregation in the cytoplasm,TDP-43 [3],did not inhibit
"OO [hydrogen peroxide (H2O2), hydrogen peroxide]",induction of abnormal aggregation of TDP-43,"TDP-43 [2]; 1 mM hydrogen peroxide, 1 hour, FIG. 2",significantly induced abnormal aggregation of TDP-43
same,induction of TDP-43 aggregation in the cytoplasm,"TDP-43 [3]; 1 mM hydrogen peroxide, 1 hour, FIG. 3 A and B",significantly induced TDP-43 aggregation in the cytoplasm
CN(C)C(=N)N=C(N)N [metformin],TFEB mRNA expression,"TFEB; metformin alone, 0.1-5 mM, 24 hours, FIG. 5",no effect
same,SQSTM1/p62 mRNA expression,"SQSTM1/p62; metformin alone, 0.1-5 mM, 24 hours, FIG. 6",no effect
same,MAP1LC3A mRNA expression,"MAP1LC3A; metformin alone, 0.1-5 mM, 24 hours, FIG. 7",no effect
same,change in HSPB8 protein expression,"HSPB8; metformin (5 mM) alone or colchicine (1000 nM) alone, FIG. 1 D",inadequate change
same,effect on hydrogen peroxide-induced TDP-43 aggregation,"TDP-43 [2]; 24 h drug, then 1 mM H2O2 for 1 hour, metformin 0.1-5 mM, colchicine 1-1000 nM, alone or in combination, FIG. 2",did not have a significant effect
same,reduction/inhibition of TDP-43 aggregation (summary),"TDP-43 protein; colchicine alone, metformin alone, or in combination",hardly reduced
same,effect on expression of insoluble TDP-43,insoluble TDP-43,slightly reduced
same,effect on TDP-25 accumulation in the cytoplasm,"TDP-25; GFP-TDP-25 transfected cells, drugs alone or in combination, FIG. 4 A",did not affect
same,effect on TDP-43 aggregation in the cytoplasm,"TDP-43 [3]; hydrogen peroxide-treated cells, drugs alone or in combination, FIG. 3 A and B",did not inhibit
